EP2114387B1, “USE OF COMPOSITIONS CONTAINING AT LEAST ONE LIGNANE AND/OR NEOLIGNANE FOR MODULATING TESTOSTERONE LEVELS” (Europe Finances, priority 2007, dated 2008)
Read-outs that look alike come from different tables or passages of the source.

Key:
5-α reductase type II [1] = target: T1, 5-α reductase type II (Homo sapiens, UniProt P31213); assay: Inhibition of 5-alpha-reductase type II in HEK II cells (conversion of [4-14C]-androstenedione to dihydroandrostenedione); format: cell-based; conditions: for % inhibition de la 5-α reductase type II: n.i. = pas d'inhibition observée
T1 construct: expressed in transfected cells; host or cells: HEK II cells (HEK line kept under Geneticin-418 selection)
T1 sequence (P31213 1-254): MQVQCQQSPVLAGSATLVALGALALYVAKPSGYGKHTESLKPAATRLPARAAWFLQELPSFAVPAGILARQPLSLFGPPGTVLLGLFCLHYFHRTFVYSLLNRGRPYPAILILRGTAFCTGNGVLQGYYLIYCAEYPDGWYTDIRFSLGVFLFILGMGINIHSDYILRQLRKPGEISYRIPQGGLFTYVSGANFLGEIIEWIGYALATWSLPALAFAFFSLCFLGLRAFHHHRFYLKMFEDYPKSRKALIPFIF
Procedure: Les cellules de type HEK I et HEK II ont été utilisées dans du DMEM (pH 7.4) avec 10 % FCS, Penicillin/Streptomycin (100 U/mL and 100 µg/mL) et 0.5 mg/mL de Geneticin-418-sulfate. Les tests d'inhibition ont été réalisés à des concentrations cellulaires de […] cellules par 1.9 cm^2 et incubées pendant 20 h, 5 % CO2 à 37 °C.
Les composés sont dissous dans le DMSO et dilués avec le DMEM pour atteindre les concentrations finales de 100 µM, 10 µM et 1 µM.
Les mesures ont été réalisées grâce à un Phospholmager et les spots correspondant au [4-14C]-androstenedione (A) et au [4-14C]-dihydroandrostenedione (DHA) furent enregistrés avec le logiciel correspondant.
Les calculs ont été réalisés selon la formule suivante: % conversion = (PSL(DHA))/(PSL(DHA+A)) × 100 [formula]
Le pourcentage d'inhibition a été calculé sur une moyenne de deux mesures.
La référence est le finastéride, un médicament inhibiteur des 5α-reductase qui est utilisé comme contrôle positif à deux concentrations de 800 nM et 100 nM, correspondant à l'IC50 du finasteride pour la 5α-reductase de type I et la 5α-reductase de type II, respectivement.

5-α reductase type II [2] = target: T1, 5-α reductase type II; conditions: reference value used to choose the positive control concentration; read-out: IC50 du finasteride; cited from earlier work
5-α reductase type I [3] = target: T2, 5-α reductase type I (Homo sapiens, UniProt P18405); conditions: reference value used to choose the positive control concentration; read-out: IC50 du finasteride; cited from earlier work
T2 construct: expressed in transfected cells; host or cells: HEK I cells (HEK line kept under Geneticin-418 selection)
T2 sequence (P18405 1-259): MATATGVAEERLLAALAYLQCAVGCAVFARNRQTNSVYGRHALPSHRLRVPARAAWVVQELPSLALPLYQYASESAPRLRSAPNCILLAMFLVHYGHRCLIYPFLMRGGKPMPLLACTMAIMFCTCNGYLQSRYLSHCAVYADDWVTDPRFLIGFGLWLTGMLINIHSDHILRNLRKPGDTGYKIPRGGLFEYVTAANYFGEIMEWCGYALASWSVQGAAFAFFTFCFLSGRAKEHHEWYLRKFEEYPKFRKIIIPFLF

5-α reductase type I [4] = target: T2, 5-α reductase type I; assay: Inhibition of 5-alpha-reductase type I in HEK I cells (conversion of [4-14C]-androstenedione to dihydroandrostenedione); format: cell-based
Procedure: Les cellules de type HEK I et HEK II ont été utilisées dans du DMEM (pH 7.4) avec 10 % FCS, Penicillin/Streptomycin (100 U/mL and 100 µg/mL) et 0.5 mg/mL de Geneticin-418-sulfate. Les tests d'inhibition ont été réalisés à des concentrations cellulaires de 0.25 x 106 cellules par 1.9 cm^2 et incubées pendant 20 h, 5 % CO2 à 37 °C.

[5] = tested on: taux plasmatique de testostérone; assay: Plasma testosterone level in mice after chronic i.p. administration (ELISA); format: in vivo, souris SWISS; conditions: young male mice, figure 1, result in words
Procedure: […] […] • Letrozole • Dose étudiée : 2 mg/kg. • Mise en solution extemporanée dans le méthylcellulose • Honokiol • Doses étudiée : • Honokiol : 0.01, 0.05, 0.5, 2, 5, 10 mg/kg. • Mise en solution extemporanée dans le méthylcellulose • Voie d'administration : […].). • Volume d'injection : 10 ml/kg. Les dosages ont é[…] selon le protocole du kit ELISA commercialisé par la société AbCys S.A., France.

| % inhibition de la 5-α reductase type II (5-α reductase type II [1]; 1 µM) | % inhibition de la 5-α reductase type II (5-α reductase type II [1]; 10 µM) | % inhibition de la 5-α reductase type II (5-α reductase type II [1]; 100 µM) | affinité pour la 5-α réductase de type II (5-α reductase type II [1]; result in words) | inhibition at 1 µM (5-α reductase type I [4]; 1 µM, mean of two measurements, read-out: % inhibition de la 5-α reductase type I) | inhibition at 10 µM (5-α reductase type I [4]; 10 µM, mean of two measurements, read-out: % inhibition de la 5-α reductase type I) | inhibition at 100 µM (5-α reductase type I [4]; 100 µM, mean of two measurements, read-out: % inhibition de la 5-α reductase type I) | IC50 (5-α reductase type I [4]; estimate from the dose-dependent inhibition) | Structure (SMILES) | inhibition at 0.1 µM (5-α reductase type II [1]; 100 nM, mean of two measurements, read-out: % inhibition de la 5-α reductase type II) | inhibition at 0.8 µM (5-α reductase type II [1]; 800 nM, mean of two measurements, read-out: % inhibition de la 5-α reductase type II) | IC50 (5-α reductase type II [2]) | IC50 (5-α reductase type I [3]) | inhibition at 0.1 µM (5-α reductase type I [4]; 100 nM, mean of two measurements, read-out: % inhibition de la 5-α reductase type I) | inhibition at 0.8 µM (5-α reductase type I [4]; 800 nM, mean of two measurements, read-out: % inhibition de la 5-α reductase type I) | taux de testostérone plasmatique [5] | sélectivité 5-α réductase de type I / type II (5-α reductase type I [4]; conclusion in words) |
| --- | --- | --- | --- | --- | --- | --- | --- | --- | --- | --- | --- | --- | --- | --- | --- | --- |
| – | – | – | – | – | – | – | – | CC(C)(C)NC(=O)[C@H]1CC[C@H]2[C@@H]3CC[C@H]4NC(=O)C=C[C@]4(C)[C@H]3CC[C@]12C [Finasteride, finastéride, reference compound] | 55% | 89% | 100 nM | 800 nM | 11% | 48% | – | – |
| n.i. | n.i. | n.i. | aucune affinité n'est observée | 1% | 11% | 64% | ~80000 nM | C=CCc1ccc(O)c(-c2ccc(O)c(CC=C)c2)c1 [Honokiol, honokiol] | – | – | – | – | – | – | modulation du taux de testostérone en fonction des doses administrées | inhibiteur sélectif de la 5-α réductase de type I |
